# According to patent US20220315895A1, “METHODS OF MAKING OLIGOPOTENT AND UNIPOTENT PRECURSORS” (Transfusion Health, LLC, priority 2019, published 2022):
# Legend:
# [1] = tested on: CD34+ cells isolated from donor peripheral blood; experiment: Enhancement of HSCs derived from non-mobilized peripheral blood with compounds of Formula I (Example 33); format: cell-based; settings: normalized fold change days 2 to 7
# Description: CD34+ cells were isolated from donor peripheral blood. Standard buffy coat separation using ficoll paque was performed. Cells were pelleted and incubated with unlabeled CD64 antibody. Cells then underwent negative depletion using biotinylated CD2, CD3, CD4, CD5, CD8, CD11b, CD14, CD16, CD19, CD20, CD45RA, CD56, CD235 (in some examples CD15, CD25 and other lineage specific antibodies may also be used). Cells which bind these antibodies are depleted using streptavidin beads. The enriched progenitor pool then undergoes cell sorting for CD34+.
# Isolated CD34+ cells were incubated in an in vitro culture media of Alpha MEM without phenol red with 10% (v/v) heat inactivated fetal bovine serum (FBS). When testing compounds of Formula I, two internal controls were used: a positive control (+SF conditions) and a baseline control (i.e. basic conditions (“cytokines only”)). The media components and concentrations used for the compounds tested are described in [0563] Table 2. The culture also included an antibiotic solution that includes penicillin, streptomycin, and amphotericin B to avoid contamination. Controls were included because the amount of expansion in samples obtained varies from individual to individual.
# Cultures were incubated at […] (controlled by nitrogen) and 5% CO2.
# Small molecule components were added separately and fresh each time the media needs to be refreshed. Cytokines can be stored together. Media renewal should occur at least every few days.
# On the days indicated one-half of the volume of the cell culture was removed for data analysis (flow cytometry using a BD FACS ARIA II). The culture volume was replenished with fresh media according to the conditions tested. The data reported accounts for the dilution factor introduced in this procedure.
# Separate experiments were performed for each compound tested (Compound 1.001-1.023).
# (§1) Table 3, below, summarizes the relative expansive effect of Compound 1.001 to 1.023 (sample compounds) at the indicated concentration. The data in Table 3 is reported as the relative expansive effect. The relative expansive effect is a normalized value of the fold changes shown in each of FIG. 1-FIG. 23. It is calculated as shown below: […]
# [2] = tested on: CD34+ cells from cord blood; experiment: Expansion of cord blood CD34+ cells, seven-day culture (Example 35); format: cell-based, human; settings: normalized fold change days 1 to 7
# Description: CD34+ cells from cord blood were purchased from STEMCELL Technologies. Primary human CD34+ cells were isolated from cord blood samples using positive immunomagnetic separation techniques. Cells were thawed and gradually brought to room temperature. Samples were washed, then placed in overnight culture in StemSpan with 100 ng/ml each of FLT3L, TPO, SCF, and TL-6. Eighteen to twenty-four hours later (day 1), cells were counted and immunophenotyped (flow cytometry on an Invitrogen Attune N×T cytometer).
# Approximately 1000 live cells were plated into each well of 96-well plates; exact cell numbers dispensed per well were quantified with flow cytometry for later calculations.
# Media for testing compounds of Formula I was prepared using Alpha MEM without phenol red, 10% (v/v) heat inactivated fetal bovine serum. Culture conditions also included an antibiotic solution that includes penicillin, streptomycin, and amphotericin B to avoid contamination. Additional media components and concentrations used for the compounds tested are described in Table 5.
# All incubations for this experiment took place at 3% oxygen (controlled by nitrogen) and 5% CO2. Following seven days of culture, cells from wells were collected and phenotypes were analyzed (flow cytometry on an Invitrogen Attune N×T cytometer).
# as §1, with “6” for “3,”, “the screened compounds” for “Compound 1.001 to 1.023 (sample compounds)”, “6” for “3”, “the figures.” for “FIG. 1-FIG. 23.”
compound,measurement,setting,value
"CC(C)(C)C(=O)Nc1ccc2c(c1)C(=O)C1CCCC21 (centres unmarked) [Compound 1.001, N-(8-oxo-1,2,3,3a,8,8a-hexahydrocyclopenta[a]inden-6-yl)pivalamide]",CD90 effect (relative expansive effect on CD34+/CD133+/CD90+ cells),[1]; sample compound 0.5 μM,++ (0.2 ≤ x < 0.55)
same,CD133 effect (relative expansive effect on CD34+/CD133+ cells),[1]; sample compound 0.5 μM,+ (x < 0.2)
"CC(C)(C)C(=O)Nc1ccc2c(c1)C(=O)C1CCCCC21 (centres unmarked) [Compound 1.002, N-(9-oxo-2,3,4,4a,9,9a-hexahydro-1H-fluoren-7-yl)pivalamide]",CD90 effect (relative expansive effect on CD34+/CD133+/CD90+ cells),[1]; sample compound 16 μM,++ (0.2 ≤ x < 0.55)
same,CD133 effect (relative expansive effect on CD34+/CD133+ cells),[1]; sample compound 16 μM,+ (x < 0.2)
"CC(C)(C)OC(=O)Nc1ccc2c(c1)C(=O)c1ccccc1-2 [Compound 1.003, tert-butyl (9-oxo-9H-fluoren-2-yl)carbamate]",CD90 effect (relative expansive effect on CD34+/CD133+/CD90+ cells),[1]; sample compound 0.5 μM,++ (0.2 ≤ x < 0.55)
same,CD133 effect (relative expansive effect on CD34+/CD133+ cells),[1]; sample compound 0.5 μM,++ (0.2 ≤ x < 0.55)
"CC(C)(C)Nc1ccc2c(c1)C(=O)c1ccccc1-2 [Compound 1.004, 2-(tert-butylamino)-9H-fluoren-9-one]",CD90 effect (relative expansive effect on CD34+/CD133+/CD90+ cells),[1]; sample compound 8 μM,+++ (0.55 ≤ x < 0.9)
same,CD133 effect (relative expansive effect on CD34+/CD133+ cells),[1]; sample compound 8 μM,++ (0.2 ≤ x < 0.55)
"CC(C)(C)C(=O)Nc1ccc2c(c1)C(=O)c1ccccc1-2 [Compound 1.005, N-(9-oxo-9H-fluoren-2-yl)pivalamide]",CD90 effect (relative expansive effect on CD34+/CD133+/CD90+ cells),[1]; sample compound 0.125 μM,+++ (0.55 ≤ x < 0.9)
same,CD133 effect (relative expansive effect on CD34+/CD133+ cells),[1]; sample compound 0.125 μM,++ (0.2 ≤ x < 0.55)
same,CD90 effect (relative expansive effect on CD34+/CD133+/CD90+ cells),[2]; sample compound 0.5 μM,++ (1.44 ≤ x < 1.8)
same,CD133 effect (relative expansive effect on CD34+/CD133+ cells),[2]; sample compound 0.5 μM,++ (1.44 ≤ x < 1.8)
CC(C)(C)C(=O)Nc1ccc2c(c1)C(=O)c1c(O)cccc1-2 [Compound 1.006],CD90 effect (relative expansive effect on CD34+/CD133+/CD90+ cells),[1]; sample compound 1 μM,++++ (0.9 ≤ x < 1.25)
same,CD133 effect (relative expansive effect on CD34+/CD133+ cells),[1]; sample compound 1 μM,+++ (0.55 ≤ x < 0.9)
same,CD90 effect (relative expansive effect on CD34+/CD133+/CD90+ cells),[2]; sample compound 2 μM,++ (1.44 ≤ x < 1.8)
same,CD133 effect (relative expansive effect on CD34+/CD133+ cells),[2]; sample compound 2 μM,++ (1.44 ≤ x < 1.8)
"CC(C)(C)C(=O)Nc1ccc2c(c1)C(=O)c1cc(O)ccc1-2 [Compound 1.007, N-(7-hydroxy-9-oxo-9H-fluoren-2-yl)pivalamide]",CD90 effect (relative expansive effect on CD34+/CD133+/CD90+ cells),[1]; sample compound 4 μM,++++ (0.9 ≤ x < 1.25)
same,CD133 effect (relative expansive effect on CD34+/CD133+ cells),[1]; sample compound 4 μM,+++ (0.55 ≤ x < 0.9)
same,CD90 effect (relative expansive effect on CD34+/CD133+/CD90+ cells),[2]; sample compound 2 μM,++++ (2.16 ≤ x < 2.52)
same,CD133 effect (relative expansive effect on CD34+/CD133+ cells),[2]; sample compound 2 μM,++++ (2.16 ≤ x < 2.52)
"NC(=O)Nc1ccc2c(c1)C(=O)c1cc(NC(N)=O)ccc1-2 [Compound 1.011, 1,1′-(9-oxo-9H-fluorene-2,7-diyl)diurea]",CD90 effect (relative expansive effect on CD34+/CD133+/CD90+ cells),[1]; sample compound 0.125 μM,++ (0.2 ≤ x < 0.55)
same,CD133 effect (relative expansive effect on CD34+/CD133+ cells),[1]; sample compound 0.125 μM,+ (x < 0.2)
"CC(=O)Nc1ccc2c(c1)C(=O)c1cc(NC(C)=O)ccc1-2 [Compound 1.012, N,N′-(9-oxo-9H-fluorene-2,7-diyl)diacetamide]",CD90 effect (relative expansive effect on CD34+/CD133+/CD90+ cells),[1]; sample compound 0.25 μM,++ (0.2 ≤ x < 0.55)
same,CD133 effect (relative expansive effect on CD34+/CD133+ cells),[1]; sample compound 0.25 μM,++ (0.2 ≤ x < 0.55)
"CC(C)(C)C(=O)Nc1ccc2c(c1)C(=O)c1ccc(O)cc1-2 [Compound 1.016, N-(6-hydroxy-9-oxo-9H-fluoren-2-yl)pivalamide]",CD90 effect (relative expansive effect on CD34+/CD133+/CD90+ cells),[1]; sample compound 16 μM,++++ (0.9 ≤ x < 1.25)
same,CD133 effect (relative expansive effect on CD34+/CD133+ cells),[1]; sample compound 16 μM,++ (0.2 ≤ x < 0.55)
"CNc1ccc2c(c1)C(O)c1ccccc1-2 (centres unmarked) [Compound 1.018, 2-(methylamino)-9H-fluoren-9-ol]",CD90 effect (relative expansive effect on CD34+/CD133+/CD90+ cells),[1]; sample compound 4 μM,++ (0.2 ≤ x < 0.55)
same,CD133 effect (relative expansive effect on CD34+/CD133+ cells),[1]; sample compound 4 μM,+ (x < 0.2)
O=C1c2ccccc2-c2ccc(F)cc21 [Compound 1.020],CD90 effect (relative expansive effect on CD34+/CD133+/CD90+ cells),[1]; sample compound 16 μM,++ (0.2 ≤ x < 0.55)
same,CD133 effect (relative expansive effect on CD34+/CD133+ cells),[1]; sample compound 16 μM,++ (0.2 ≤ x < 0.55)
"CC(=O)OC1c2ccccc2-c2ccc(NC(=O)C(C)(C)C)cc21 (centres unmarked) [Compound 1.024, 2-pivalamide-9H-fluoren-9-yl acetate]",CD90 effect (relative expansive effect on CD34+/CD133+/CD90+ cells),[2]; sample compound 8 μM,++++ (2.16 ≤ x < 2.52)
same,CD133 effect (relative expansive effect on CD34+/CD133+ cells),[2]; sample compound 8 μM,+++ (1.8 ≤ x < 2.16)
